Measurements reported in US10844070B2, “Peripherally restricted GABA positive allosteric modulators for the treatment of irritable bowel syndrome and other ailments of the peripheral nervous system” (The Johns Hopkins University, priority 2014, dated 2020).
Entries after “also recorded” stand apart in the source; their conditions may differ.

Legend:
Type in all cases: in vivo
C57B/6 mice [1] = test: Distal colon transit time (DCTT), glass bead expulsion; conditions: 3 mg/kg gavage
Method: We examined the time course of Compound 1 on distal colon transit time (DCTT) in C57B/6 mice to assess the colon motility. DCTT was performed by gently pushing a 2 mm glass bead into rectal 2 cm and then placing the mouse into a white box (time 0). The time that the glass bead was released from rectal is presented as DCTT (min). Mice were gavaged with 0 or 3 mg/kg of Compound 1 and DTCC was conducted at 30, 60, 90 and 120 min after the administration of Compound 1. […] The increase in the DCTT reached a peak at 90 min and returned at 2 hours after the administration of Compound 1 (FIG. 2).

[2] = Stool composition (total stool weight, water content); conditions: stools collected for 3 hours
Method: After gavage of Compound 1 (3 and 10 mg/kg), stools were collected immediately after expulsion for 3 hours. The wet stools were weighted as total stool weight followed by dry at 65° C. for 24 hours and weight as dry stool weight. The percent of water content in the stool was calculated by (total stool weight-dry stool weight)/total stool weight x 100.

C57B/6 mice [3] = test: Whole gut transit time (WGTT), carmine red gavage; conditions: 1, 3 and 10 mg/kg by gavage in 50% propylene glycol; statistically significant at all doses
Method: Dose responses of the effect of Compound 1 on the whole gut transit time (WGTT) were examined. Compound 1 (0, 1, 3 and 10 mg/kg) in 50% propylene glycol was administrated by gavage (5 ml/kg), followed by gavage of 0.2 ml carmine red solution (6% carmine red in 0.5% methylcellulose) into C57B/6 mice. Mice were then placed in a white cardboard box and the time was recorded as time 0. The color of stool was observed every 10 min until the red dye appeared in stool. The time that first red stool appears was recorded as the ending time. The difference between the ending time and time 0 is used to present WGTT (min).

IBS mice = test: Pain sensitivity in IBS mouse model (VMR to colorectal distension)
Method: IBS visceral pain model, induced by neonatal rectal irritation. Colonic pain sensitivity to graded colorectal balloon distension (CRD, 15, 30, 50 and 70 mmHg) was determined by visceromotor response (VMR) measured by electromyography of external oblique muscle.

[4] = Measurement of brain and plasma levels by LC/MS; conditions: mice, 10 mg/kg oral gavage, after 30 minutes
Method: Compound 1 was administered to 5 mice at a dose of 10 mg/kg as a solution in 50% propylene glycol by oral gavage (5 ml/kg), After 30 minutes, mice were sacrificed and plasma and brain were harvested. The concentration of Compound 1 in plasma and brain were measured by LC/MS.

Question: Which results are given for `O=C(O)c1nc2n(n1)-c1ccc(Cl)cc1C(c1ccccc1F)=NC2` [Compound 1, 8-Chloro-6-(2-fluorophenyl)-4H-[1,2,4]triazolo[1,5-a][1,4]benzodiazepine-2-carboxylic acid]?
Answer: time at which DCTT returned after administration (C57B/6 mice [1]): 2 h; time at which the increase in DCTT reached a peak (C57B/6 mice [1]): 90 min; effect on distal colon transit time (DCTT) (C57B/6 mice [1]; as early as 30 min after gavage): significantly increased the DCTT; effect on percent of water content in the stool ([2]; 3 mg/kg gavage): not; effect on total stool weight ([2]; 3 mg/kg gavage): not; effect on percent of water content in the stool ([2]; 10 mg/kg gavage): significantly reduced; effect on total stool weight ([2]; 10 mg/kg gavage): significantly reduced; effect on whole gut transit time (WGTT) (C57B/6 mice [3]): dose-dependently increased WGTT; effect on hyperalgesia (VMR to CRD) (IBS mice; IBS mice, 10 mg/kg, Two-Way ANOVA): significantly attenuated the hyperalgesia; also recorded: significantly reduced; effect on pain sensitivity (VMR to CRD) (IBS mice; control mice, 10 mg/kg (data not shown)): no effect was observed; average plasma concentration [4]: 1061+189 nM; concentration at 30 min ([4]; mouse, brain, limit of quantitation 62.5 nM): < 62.5 nM
